According to the supplement of paper PMC4628005:

What was measured:
Details in all cases: drug exposure time: 96 h
Erlotinib = compound: C#Cc1cccc(Nc2ncnc3cc(OCCOC)c(OCCOC)cc23)c1 [Erlotinib]
Description: (§1)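 Breast cancer cell lines were grown in RPMI 1640 with 10% FBS on collagen I-coated 96-well plates and treated for 96 h (from 24 h after seeding) with 12 dilutions per drug, in triplicate. Growth was read by sulforhodamine B total-protein staining (absorbance 570 nm) relative to diluent control, and IC50 was calculated. The top dose was 1e-5 M for most drugs; Bortezomib went to 2e-5 M and Sirolimus and 17-AAG to 2e-6 M[…].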

Docetaxel = compound: CC(=O)O[C@@]12CO[C@@H]1C[C@H](O)[C@@]1(C)C(=O)[C@H](O)C3=C(C)[C@@H](OC(=O)[C@H](O)[C@@H](NC(=O)OC(C)(C)C)c4ccccc4)C[C@@](O)([C@@H](OC(=O)c4ccccc4)[C@H]21)C3(C)C [Docetaxel]
Description: as §1

Paclitaxel = compound: CC(=O)O[C@H]1C(=O)[C@@]2(C)[C@H]([C@H](OC(=O)c3ccccc3)[C@]3(O)C[C@H](OC(=O)[C@H](O)[C@@H](NC(=O)c4ccccc4)c4ccccc4)C(C)=C1C3(C)C)[C@]1(OC(C)=O)CO[C@@H]1C[C@@H]2O [Paclitaxel]
Description: as §1

MI-219 = compound: CC(C)(C)C[C@H]1N[C@@H](C(=O)NCC[C@H](O)CO)[C@H](c2cccc(Cl)c2)[C@@]12C(=O)Nc1cc(Cl)c(F)cc12 [MI-219]
Description: as §1

Tamoxifen = compound: CC/C(=C(\c1ccccc1)c1ccc(OCCN(C)C)cc1)c1ccccc1 [Tamoxifen]
Description: as §1

Sunitinib = compound: CCN(CC)CCNC(=O)c1c(C)[nH]c(/C=C2\C(=O)Nc3ccc(F)cc32)c1C [Sunitinib]
Description: as §1

Methotrexate = compound: CN(Cc1cnc2nc(N)nc(N)c2n1)c1ccc(C(=O)N[C@@H](CCC(=O)O)C(=O)O)cc1 [Methotrexate]
Description: as §1

Sorafenib = compound: CNC(=O)c1cc(Oc2ccc(NC(=O)Nc3ccc(Cl)c(C(F)(F)F)c3)cc2)ccn1 [Sorafenib]
Description: as §1

Vandetanib = compound: COc1cc2/c(=N/c3ccc(Br)cc3F)nc[nH]c2cc1OCC1CCN(C)CC1 [Vandetanib]
Description: as §1

Gefitinib = compound: COc1cc2ncnc(Nc3ccc(F)c(Cl)c3)c2cc1OCCCN1CCOCC1 [Gefitinib]
Description: as §1

Nutlin-3 = compound: COc1ccc(C2=N[C@@H](c3ccc(Cl)cc3)[C@@H](c3ccc(Cl)cc3)N2C(=O)N2CCNC(=O)C2)c(OC(C)C)c1 [Nutlin-3]
Description: as §1

Doxorubicin = compound: COc1cccc2c1C(=O)c1c(O)c3c(c(O)c1C2=O)C[C@@](O)(C(=O)CO)C[C@@H]3O[C@H]1C[C@H](N)[C@H](O)[C@H](C)O1 [Doxorubicin]
Description: as §1

Lapatinib = compound: CS(=O)(=O)CCNCc1ccc(-c2ccc3ncnc(Nc4ccc(OCc5cccc(F)c5)c(Cl)c4)c3c2)o1 [Lapatinib]
Description: as §1

Panobinostat = compound: Cc1[nH]c2ccccc2c1CCNCc1ccc(/C=C/C(=O)NO)cc1 [Panobinostat]
Description: as §1

Brivanib = compound: Cc1cc2c(F)c(Oc3ncnn4cc(OC[C@@H](C)O)c(C)c34)ccc2[nH]1 [Brivanib]
Description: as §1

Dasatinib = compound: Cc1nc(Nc2ncc(C(=O)Nc3c(C)cccc3Cl)s2)cc(N2CCN(CCO)CC2)n1 [Dasatinib]
Description: as §1

Quisinostat = compound: Cn1cc(CNCC2CCN(c3ncc(C(=O)NO)cn3)CC2)c2ccccc21 [Quisinostat]
Description: as §1

Tipifarnib = compound: Cn1cncc1[C@@](N)(c1ccc(Cl)cc1)c1ccc2c(c1)c(-c1cccc(Cl)c1)cc(=O)n2C [Tipifarnib]
Description: as §1

Cisplatin = compound: N.N.[Cl][Pt][Cl] [Cisplatin]
Description: as §1

Azacitidine = compound: Nc1ncn([C@@H]2O[C@H](CO)[C@@H](O)[C@H]2O)c(=O)n1 [Azacitidine]
Description: as §1

Decitabine = compound: Nc1ncn([C@H]2C[C@H](O)[C@@H](CO)O2)c(=O)n1 [Decitabine]
Description: as §1

Belinostat = compound: O=C(/C=C/c1cccc(S(=O)(=O)Nc2ccccc2)c1)NO [Belinostat]
Description: as §1

Vorinostat = compound: O=C(CCCCCCC(=O)Nc1ccccc1)NO [Vorinostat]
Description: as §1

ARQ197 = compound: O=C1NC(=O)[C@@H](c2cn3c4c(cccc24)CCC3)[C@@H]1c1c[nH]c2ccccc12 [ARQ197]
Description: as §1

Mitoxantrone = compound: O=C1c2c(O)ccc(O)c2C(=O)c2c(NCCNCCO)ccc(NCCNCCO)c21 [Mitoxantrone]
Description: as §1

5-Fluorouracil = compound: O=c1[nH]cc(F)c(=O)[nH]1 [5-Fluorouracil]
Description: as §1

Serdemetan = compound: c1ccc2c(CCNc3ccc(Nc4ccncc4)cc3)c[nH]c2c1 [Serdemetan]
Description: as §1

17-AAG = compound: C=CCNC1=C2C[C@@H](C)C[C@H](OC)[C@H](O)[C@@H](C)/C=C(\C)[C@H](OC(N)=O)[C@@H](OC)/C=C\C=C(/C)C(=O)NC(=CC1=O)C2=O [17-AAG]
Description: (§2)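 Same SRB 96 h IC50 screen on breast cancer cell lines (RPMI 1640 + 10% FBS, collagen I-coated 96-well plates, triplicates, 12 dilutions), for drugs with a different dose range: Bortezomib up to 2e-5 M; Sirolimus and 17-AAG up to 2e-6 M. Sirolimus values at the 2e-6 M top dose are censored.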

Bortezomib = compound: CC(C)C[C@H](NC(=O)[C@H](Cc1ccccc1)NC(=O)c1cnccn1)B(O)O [Bortezomib]
Description: as §2

Sirolimus = compound: CO[C@H]1C[C@@H]2CC[C@@H](C)[C@@](O)(O2)C(=O)C(=O)N2CCCC[C@H]2C(=O)O[C@H]([C@H](C)C[C@@H]2CC[C@@H](O)[C@H](OC)C2)CC(=O)[C@H](C)/C=C(\C)[C@@H](O)[C@@H](OC)C(=O)[C@H](C)C[C@H](C)/C=C/C=C/C=C/1C [Sirolimus]
Description: as §2

Row | Test System | IC50 (SRB growth assay) (Erlotinib) | IC50 (SRB growth assay) (Docetaxel) | IC50 (SRB growth assay) (Paclitaxel) | IC50 (SRB growth assay) (MI-219) | IC50 (SRB growth assay) (Tamoxifen) | IC50 (SRB growth assay) (Sunitinib) | IC50 (SRB growth assay) (Methotrexate) | IC50 (SRB growth assay) (Sorafenib) | IC50 (SRB growth assay) (Vandetanib) | IC50 (SRB growth assay) (Gefitinib) | IC50 (SRB growth assay) (Nutlin-3) | IC50 (SRB growth assay) (Doxorubicin) | IC50 (SRB growth assay) (Lapatinib) | IC50 (SRB growth assay) (Panobinostat) | IC50 (SRB growth assay) (Brivanib) | IC50 (SRB growth assay) (Dasatinib) | IC50 (SRB growth assay) (Quisinostat) | IC50 (SRB growth assay) (Tipifarnib) | IC50 (SRB growth assay) (Cisplatin) | IC50 (SRB growth assay) (Azacitidine) | IC50 (SRB growth assay) (Decitabine) | IC50 (SRB growth assay) (Belinostat) | IC50 (SRB growth assay) (Vorinostat) | IC50 (SRB growth assay) (ARQ197) | IC50 (SRB growth assay) (Mitoxantrone) | IC50 (SRB growth assay) (5-Fluorouracil) | IC50 (SRB growth assay) (Serdemetan) | IC50 (SRB growth assay) (17-AAG) | IC50 (SRB growth assay) (Bortezomib) | IC50 (SRB growth assay) (Sirolimus)
1 | MDA-MB 415 | > 10000 nM | 0.764 nM | 5.81 nM | > 10000 nM | 9970 nM | 5100 nM | 326 nM | 5200 nM | 4780 nM | > 10000 nM | > 10000 nM | 66 nM | > 10000 nM | 23.6 nM | > 10000 nM | > 10000 nM | 24.1 nM | 6780 nM | > 10000 nM | > 10000 nM | > 10000 nM | 548 nM | 1530 nM | 691 nM | 31.3 nM | 6530 nM | 6070 nM | 71.8 nM | 10.8 nM | 0.688 nM
2 | MDA-MB 435 S | > 10000 nM | 1.32 nM | 2.15 nM | > 10000 nM | > 10000 nM | 5440 nM | 12.4 nM | 6530 nM | 6950 nM | > 10000 nM | > 10000 nM | 54.8 nM | > 10000 nM | 44.5 nM | > 10000 nM | > 10000 nM | 25.2 nM | > 10000 nM | > 10000 nM | 3760 nM | > 10000 nM | 2010 nM | 2630 nM | 705 nM | 35.8 nM | 2860 nM | 2050 nM | 164 nM | 12.3 nM | > 2000 nM
3 | MDA-MB 436 | 1970 nM | 0.772 nM | 2.3 nM | > 10000 nM | > 10000 nM | 2170 nM | 27.7 nM | 4830 nM | 4100 nM | 4960 nM | > 10000 nM | 5.7 nM | 4660 nM | 34.6 nM | > 10000 nM | 1290 nM | 23.5 nM | 703 nM | 1400 nM | 1670 nM | 783 nM | 637 nM | 1890 nM | 359 nM | 0.781 nM | 981 nM | 1000 nM | 34.9 nM | 6.95 nM | 3.42 nM
4 | MDA-MB 453 | > 10000 nM | 0.872 nM | 2.14 nM | > 10000 nM | 6360 nM | 6260 nM | > 10000 nM | 4930 nM | 5110 nM | > 10000 nM | > 10000 nM | 31.9 nM | 827 nM | 5.73 nM | > 10000 nM | 3.93 nM | 2.01 nM | 2140 nM | > 10000 nM | 7190 nM | 4170 nM | 52.7 nM | 368 nM | 192 nM | 8.79 nM | > 10000 nM | 796 nM | 3.08 nM | 6.37 nM | 0.19 nM
5 | MDA-MB 468 | 1150 nM | 0.515 nM | 1.56 nM | > 10000 nM | 4940 nM | 2940 nM | 7.54 nM | 4530 nM | 1990 nM | 990 nM | > 10000 nM | 9.63 nM | 762 nM | 14.9 nM | > 10000 nM | > 10000 nM | 9.89 nM | 77 nM | 974 nM | 2340 nM | 77.7 nM | 436 nM | 1030 nM | 222 nM | 4.09 nM | 5280 nM | 837 nM | 745 nM | 4.31 nM | 2.22 nM
6 | MPE 600 | 8850 nM | 1.15 nM | 2.51 nM | 2050 nM | > 10000 nM | 6560 nM | 31 nM | 1900 nM | 1990 nM | 4260 nM | 4450 nM | 26.6 nM | 3080 nM | 13.8 nM | > 10000 nM | > 10000 nM | 14.8 nM | 631 nM | > 10000 nM | 548 nM | 595 nM | 379 nM | 1220 nM | 859 nM | 8.01 nM | 1250 nM | 2260 nM | 104 nM | 5.48 nM | 1.52 nM
